In US10314323B2, “Methods for improving the condition of hair in non-human animals” (Hill's Pet Nutrition, Inc., priority 2012, dated 2019):
“Also recorded” adds a separate entry of the source.

tested on: healthy adult cats; test: Hair 18-MEA content after feeding amino acid supplemented diets to healthy cats; format: in vivo, cat; details: versus control base diet, regression model with base line as covariant; p<0.05 for isoleucine and threonine, p>0.05 for leucine
Source text: The hair was clipped from the left middle flank areas of 24 healthy adult cats. The clipped regions measured approximately 20.32 cm by 10.16 cm (about 8 inches by about 4 inches). Hair was clipped as close to the skin as possible. The cats were then fed a base diet consisting of a commercially available nutritionally complete food for a period of 90 days. The nutrient content of the base food is set out in Table 1. On day 90, newly grown hair was clipped from the left middle flanks of the cats. The clipped regions measured approximately 19.05 cm by 8.89 cm (about 7.5 inches by about 3.5 inches). Samples of the clipped hair from each cat were retained and analysed for their 18-MEA content in order to determine the base line levels. The cats were divided into four groups of 6. The age, sex and nurturing status of the cats were balanced between the groups. The groups were randomly assigned a diet selected from the base diet, the base diet plus supplemental leucine, the base diet plus supplemental isoleucine, and the base diet plus supplemental threonine as shown in Table 2. The groups were fed the assigned diets for 90 days. On day 180, the newly grown hair was clipped from the left middle flanks of the cats. The clipped regions measured approximately 17.78 cm by 7.62 cm (about 7 inches by about 3 inches). Samples of clipped hair from each cat were retained and analysed for 18-MEA content. For the 18-MEA analysis, hair samples were first washed with circulating ethyl ether for 6 hours to remove the surface lipids and oils. The hair samples were cut into pieces about 5 mm in length or less, digested and extracted for 18-MEA that was measured with a gas chromatograph. The 18-MEA data were analysed using a regression model. Hair 18-MEA content was the dependent variable, and diet was used as the independent variable. The base line data were used as the covariant.

SMILES | Effect on 18-MEA concentration of the hair
CC[C@H](C)[C@H](N)C(=O)O [isoleucine, (2S, 3S)-2-amino-3-methylpentanoic acid] | increase; also recorded: significantly increased
C[C@@H](O)[C@H](N)C(=O)O [threonine, (2S, 3R)-2-amino-3-hydroxybutanoic acid] | increase; also recorded: significantly increased
CC(C)C[C@H](N)C(=O)O [Leucine, leucine, reference compound] | no significant effect
